pIC50: −log10 of the molar value.

One data set has as its system p21^Waf1/Cip1 and p53. In words: Signaling events (p21Waf1/Cip1, p53) in BxPC-3. The class given is cell-based, human.
The test system of data set [1] is MDA-MB-468. In words: Cytotoxicity (MTS), Example 7, MDA-MB-468. The class given is cell-based, human. Particulars: MDA-MB-468, 96 h. Here is the method: One day prior to adding the ADC, cells were harvested from tissue culture and plated into 96-well plates at 2000 cells per well. […] Plates were incubated at 37° C. for 96 h. […] Growth inhibition was measured as a percent of growth relative to untreated cells using Microsoft Excel and Prism software (non-linear regression to generate sigmoidal dose response curves which yield IC50-values).

The test system of data set [2] is MDA-MB-468. In words: ADCC LDH-release, MDA-MB-468. The format is cell-based, human. The following applies: for specific lysis (ADCC): MDA-MB-468, 33.3 nM, E:T 50:1, 4 h. Here is the method:
The next day, peripheral blood mononuclear effector cells (PBMCs) were freshly isolated from a donor and added to assigned wells on the reaction plate at an E:T ratio of 50:1. Acquisition of human PBMCs was done under the approval of the New England Institutional Review Board (Newton, MA). […] One set of wells received ADCC assay medium alone for background control and another set of wells received cells alone plus TritonX100 for maximum cells lysis control. The plate was incubated for 4 h at 37° C. After 4 h, target cell lysis was assessed by a homogenous fluorometric LDH release assay (Cyto Tox-One Homogenous Membrane Integrity Assay; Promega, Cat. G7891).
Data were analyzed by Microsoft Excel. Percent specific lysis was calculated as follows:
where: • Experimental: effector+target cells+antibody • Effector+Target Control: effector+target cells • Max. Lysis: target cells+Triton-X100 • Target Control: target cells only

For data set [3], the system named is NCI-N87 human gastric tumor xenografts. In words: Dose schedules and chronic dosing, NCI-N87 xenograft. The class given is in vivo, mouse. The source says:
In Vivo Therapeutic Studies—NCr female athymic nude (nu/nu) mice, 4-8 weeks old, were purchased from Taconic Farms (Germantown, NY). NCI-N87 gastric tumor xenografts were established by harvesting cells from tissue culture and making a final cell suspension 1:1 in matrigel (BD Bioscience; San Jose, CA), with each mouse receiving a total of 1×10^7 cells s.c. in the right flank. For BxPC-3. xenografts of 1 g were harvested, and a tumor suspension made in HBSS to a concentration of 40% tumor w/v. This suspension was mixed 1:1 with matrigel for a final tumor suspension of 20% w/v. […] For IHC, tumors were allowed to grow to approximately 0.5 cm^3 before the mice were euthanized and the tumors removed, formalin-fixed and paraffin-embedded. For therapy studies, mice were randomized into treatment groups and therapy begun when tumor volumes were approximately 0.25 cm^3.
Mice were euthanized and deemed to have succumbed to disease once tumors grew to greater than 1.0 cm^3 in size. […] Time to progression (TTP) was determined as time post-therapy initiation when the tumor grew more than 20% in size from its nadir.
A similar dose schedule experiment was performed in mice bearing NCI-N87 human gastric tumor xenografts (not shown). […] Likewise, in terms of overall survival, while all three dose schedules provided a significant survival benefit when compared to untreated control (P<0.0001), there were no differences between any of these three different schedules.
In all, four treatment cycles were administered to the animals.

The subject of another data set is COLO 205. Description: In vitro cytotoxicity, COLO 205.
The next data set deals with NCI-N87. Description: Cytotoxicity (MTS), Example 6, NCI-N87. The format is cell-based, human. Particulars: NCI-N87, 96 h. As for the experimental part: One day prior to adding the ADCs, cells were harvested from tissue culture and plated into 96-well plates. […] Plates were incubated at 37° C. for 96 h. […] Growth inhibition was measured as a percent of growth relative to untreated cells using Microsoft Excel and Prism software (non-linear regression to generate sigmoidal dose response curves which yield IC50-values.

Text for COLO 205: Cell lines, antibodies, and chemotherapeutics—All human cancer cell lines used in this study were purchased from the American Type Culture Collection.
Text for p21^Waf1/Cip1 and p53: Our initial studies examined the expression of 2 proteins involved in early signaling events (p21^Waf1/Cip1 and p53) and 1 late apoptotic event [cleavage of poly-ADP-ribose polymerase (PARP)] in vitro (not shown).

For IMMU-132, the “exposure time at which p53 upregulation is evident” value in the data set on p21^Waf1/Cip1 and p53 was no more than 24 h. Moreover, the results for the negative logarithm of the IC50 (pIC50) in the data set on MDA-MB-468 [1], in the data set with COLO 205 and in the data set on NCI-N87 were 8.41, 8.71 and 8.44, respectively. For the same substance, the “specific lysis (ADCC)” value in the data set on MDA-MB-468 [2] was 8.6±2.6%. Besides, the “loss of effector function (ADCC)” value with MDA-MB-468 [2] (three different cell lines) is 60-70%. The TTP in data set [3] (0.5 mg once a week for two weeks, one week off, four cycles) turned out to be 15.7 ± 11.1 days. Moreover, the treatment-related toxicities result in data set [3] (all dosing scheme evaluations, body weight) is “no treatment-related toxicities were observed”. In addition, the “increase in median survival vs control ADC” value in data set [3] (chronic dosing) was found to be 3 fold. This substance also registered a median survival in data set [3] (chronic dosing, four cycles) of 63 days.

Regarding hRS7 IgG, the “exposure time at which p53 upregulation is evident” value with p21^Waf1/Cip1 and p53 was 48 h. Besides, the “specific lysis (ADCC)” value in the data set on MDA-MB-468 [2] is listed as 29.8±2.6%.

The values above are taken from patent US20240352145A1, “EFFICACY OF ANTI-TROP-2-SN-38 ANTIBODY DRUG CONJUGATES FOR THERAPY OF TUMORS RELAPSED/REFRACTORY TO CHECKPOINT INHIBITORS” (Immunomedics, Inc., priority 2016, published 2024).
